Entries after “also recorded” stand apart in the source; their conditions may differ.
Assay: Observations of appearance, structure and phase separation (Centrifuge Test)
Format: physicochemical
Conditions: sulfate

## CCCCCCCCCCCCCOS(=O)(=O)[O-].[Na+] [non-ethoxylated sodium tridecyl sulfate, sodium tridecyl sulfate]
  lamellar phase formation of personal cleansing compositions comprising the surfactant: did not form lamellar phase; also recorded: unable to produce a stable lamellar phase

Reference: patent US12029803B2, “Personal cleansing compositions, methods and uses” (The Procter & Gamble Company, priority 2021, dated 2024)
